Source: US12311025B2, “Formulations for eye treatments” (Avedro, Inc., priority 2017, dated 2025)
In brackets after ≈: the same amount, converted by molar mass.

Experiments:
[1] = Solubility of FMN in co-solvents; assay type: physicochemical; conditions: organic solvent or mixture
Excerpt: Other penetration-enhancing agents may include a non-ionic co-solvent as a tonicity agent in a formulation. Tonicity agents that are sufficiently low in MW can readily diffuse into the tissues. The therapeutic agent having good solubility in the co-solvent can experience enhanced delivery through the epithelium and into the stroma. Propylene glycol may be a penetration enhancer for topical formulations by this mechanism of action. Thus, the one or more therapeutic formulations 304 may include one or more co-solvents as tonicity agents 304c. A list of co-solvents that may be used to increase therapeutic agent delivery via this mechanism of action and suitable for ophthalmic use are shown in TABLE 2.
Both propylene glycol and glycerin may be employed as ingredients in dry eye drops. Glycerin has been evaluated for therapeutic agent delivery into the eye and is capable of penetrating the cornea. For instance, FMN has solubility in propylene glycol and glycerin that is greater than the total concentration in the formulation. As the co-solvent penetrates the tissues, it may carry some FMN into the tissues as well enhancing the delivery. Replacing the sodium chloride with glycerin or propylene glycol should not negatively impact therapeutic agent delivery of the FMN.

[2] = cited from earlier work

solubility ([1]; in ethanol) [µg/mL] | solubility ([1]; in glycerin) [µg/mL] | solubility ([1]; in propylene glycol) [µg/mL] | SMILES | solubility in water [2] [%]
80 (≈ 0.175 mM) | 8900 (≈ 19.5 mM) | 5700 (≈ 12.5 mM) | Cc1cc2nc3c(=O)[nH]c(=O)nc-3n(C[C@H](O)[C@H](O)[C@H](O)COP(=O)(O)O)c2cc1C [FMN, riboflavin-5′-phosphate] | –
– | – | – | CC1CCC(C(C)C)C(O)C1 (stereo not shown) [menthol] | 0.04
